# Test results from doi:10.1101/158956v2 (biorxiv, 2017).
# T1: EcFumC (Escherichia coli, UniProt P05042)
# T1 sequence (P05042 1-467): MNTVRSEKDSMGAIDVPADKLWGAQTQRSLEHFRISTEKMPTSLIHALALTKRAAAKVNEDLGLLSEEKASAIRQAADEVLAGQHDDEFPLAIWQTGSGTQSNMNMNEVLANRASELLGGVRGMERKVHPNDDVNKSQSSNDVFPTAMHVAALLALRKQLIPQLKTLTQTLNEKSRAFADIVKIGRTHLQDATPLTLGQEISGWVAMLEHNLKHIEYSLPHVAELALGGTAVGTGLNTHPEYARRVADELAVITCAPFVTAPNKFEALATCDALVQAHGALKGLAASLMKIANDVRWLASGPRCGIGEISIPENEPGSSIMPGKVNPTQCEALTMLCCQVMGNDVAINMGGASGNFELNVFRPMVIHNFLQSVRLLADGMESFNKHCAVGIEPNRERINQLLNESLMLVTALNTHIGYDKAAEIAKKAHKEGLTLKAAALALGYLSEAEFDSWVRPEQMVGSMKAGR
# T2: EcFumA (Escherichia coli, UniProt P0AC33)
# T2 sequence (P0AC33 2-548): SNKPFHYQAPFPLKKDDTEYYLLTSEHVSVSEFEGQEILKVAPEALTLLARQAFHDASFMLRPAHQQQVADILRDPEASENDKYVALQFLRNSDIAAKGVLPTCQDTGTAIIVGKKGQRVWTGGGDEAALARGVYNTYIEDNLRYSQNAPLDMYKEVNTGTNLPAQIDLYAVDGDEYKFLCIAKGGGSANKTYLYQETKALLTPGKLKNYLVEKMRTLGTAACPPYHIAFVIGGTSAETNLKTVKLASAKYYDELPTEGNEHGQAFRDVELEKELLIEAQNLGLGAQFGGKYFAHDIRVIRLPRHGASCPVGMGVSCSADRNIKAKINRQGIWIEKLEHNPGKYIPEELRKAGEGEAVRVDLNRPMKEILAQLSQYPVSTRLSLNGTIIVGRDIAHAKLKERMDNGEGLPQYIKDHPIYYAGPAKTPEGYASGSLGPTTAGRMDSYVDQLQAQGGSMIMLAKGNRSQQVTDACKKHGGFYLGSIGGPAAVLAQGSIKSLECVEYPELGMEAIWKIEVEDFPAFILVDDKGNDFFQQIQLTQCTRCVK
# T3: PfFHΔ40 (PfFΔ40) (Plasmodium falciparum, UniProt Q8I2N6)
# T3 sequence (Q8I2N6 41-681): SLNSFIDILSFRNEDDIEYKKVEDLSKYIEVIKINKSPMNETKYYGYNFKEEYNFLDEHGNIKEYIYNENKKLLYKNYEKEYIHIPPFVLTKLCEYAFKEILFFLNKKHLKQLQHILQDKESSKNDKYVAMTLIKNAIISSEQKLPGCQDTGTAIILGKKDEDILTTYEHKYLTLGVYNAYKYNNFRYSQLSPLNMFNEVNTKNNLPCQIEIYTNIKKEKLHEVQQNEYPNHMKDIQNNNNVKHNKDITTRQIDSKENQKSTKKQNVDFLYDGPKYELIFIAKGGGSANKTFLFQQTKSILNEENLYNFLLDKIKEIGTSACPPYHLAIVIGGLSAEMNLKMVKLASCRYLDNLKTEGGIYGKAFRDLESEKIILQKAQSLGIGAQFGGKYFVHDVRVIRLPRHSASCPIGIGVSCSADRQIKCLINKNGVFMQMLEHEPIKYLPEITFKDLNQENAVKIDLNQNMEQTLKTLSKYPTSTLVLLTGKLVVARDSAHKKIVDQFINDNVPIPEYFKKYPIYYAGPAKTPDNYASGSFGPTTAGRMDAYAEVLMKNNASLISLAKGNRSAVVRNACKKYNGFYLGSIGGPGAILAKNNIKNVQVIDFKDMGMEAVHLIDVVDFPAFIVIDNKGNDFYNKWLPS
# Experiments:
# [1] = molecular target: T1, EcFumC; experiment: spectrophotometric initial velocity; format: biochemical
# [2] = molecular target: T2, EcFumA; experiment: spectrophotometric initial velocity; format: biochemical
# [3] = molecular target: T3, PfFHΔ40 (PfFΔ40); experiment: spectrophotometric initial velocity; format: biochemical
# [4] = molecular target: T3, PfFHΔ40 (PfFΔ40); experiment: spectrophotometric initial velocity, Michaelis-Menten fit; conditions: 50 mM Tris-HCl pH 8.5, 37 °C
# [5] = molecular target: T3, PfFHΔ40 (PfFΔ40); experiment: spectrophotometric initial velocity, global fit to competitive model; format: biochemical
# [6] = substrate: C/C(=C\C(=O)O)C(=O)O; experiment: purified protein; conditions: 50 mM Tris-HCl pH 8.5, 37 °C
# [7] = substrate: O=C(O)C[C@H](O)C(=O)O; experiment: purified protein; conditions: 50 mM Tris-HCl pH 8.5, 37 °C
molecule,measurement,setting,value
O=C(O)C(O)C(O)C(=O)O (stereo not drawn) [meso-tartrate],Ki,[1],652 µM
same,Ki,[2],625 µM
same,Ki,[3],114 ± 17 µM
O=C(O)/C=C/C(=O)O [fumarate],Km,[4],2600 ± 300 µM
O=C(O)CC(S)C(=O)O (racemic) [DL-mercaptosuccinic acid],Ki,[2],2.9 ± 0.22 µM
same,Ki,[5],0.548 ± 0.046 µM
PfFHΔ40 (PfFΔ40) (Plasmodium falciparum 3D7) (protein) SLNSFIDILSFRNEDDIEYKKVEDLSKYIEVIKINKSPMNETKYYGYNFKEEYNFLDEHGNIKEYIYNENKKLLYKNYEKEYIHIPPFVLTKLCEYAFKEILFFLNKKHLKQLQHILQDKESSKNDKYVAMTLIKNAIISSEQKLPGCQDTGTAIILGKKDEDILTTYEHKYLTLGVYNAYKYNNFRYSQLSPLNMFNEVNTKNNLPCQIEIYTNIKKEKLHEVQQNEYPNHMKDIQNNNNVKHNKDITTRQIDSKENQKSTKKQNVDFLYDGPKYELIFIAKGGGSANKTFLFQQTKSILNEENLYNFLLDKIKEIGTSACPPYHLAIVIGGLSAEMNLKMVKLASCRYLDNLKTEGGIYGKAFRDLESEKIILQKAQSLGIGAQFGGKYFVHDVRVIRLPRHSASCPIGIGVSCSADRQIKCLINKNGVFMQMLEHEPIKYLPEITFKDLNQENAVKIDLNQNMEQTLKTLSKYPTSTLVLLTGKLVVARDSAHKKIVDQFINDNVPIPEYFKKYPIYYAGPAKTPDNYASGSFGPTTAGRMDAYAEVLMKNNASLISLAKGNRSAVVRNACKKYNGFYLGSIGGPGAILAKNNIKNVQVIDFKDMGMEAVHLIDVVDFPAFIVIDNKGNDFYNKWLPS,Km,[6],3200 ± 300 µM
same,Km,[7],1200 ± 100 µM
